Assay results as given in publication PMC12325182, “Discovery of novel and potent celastrol derivatives as PRDX1 inhibitors for cancer therapy through structure-based virtual screening” (Frontiers in Pharmacology, 2025).

Assays:
Type in all cases: biochemical
PRDX1 = target: T1, PRDX1 (Homo sapiens, UniProt Q06830); test: PRDX1 inhibition assay; settings: mean ± SD, n = 3; read-out: PRDX1 (IC50)
T1 sequence (Q06830 1-199): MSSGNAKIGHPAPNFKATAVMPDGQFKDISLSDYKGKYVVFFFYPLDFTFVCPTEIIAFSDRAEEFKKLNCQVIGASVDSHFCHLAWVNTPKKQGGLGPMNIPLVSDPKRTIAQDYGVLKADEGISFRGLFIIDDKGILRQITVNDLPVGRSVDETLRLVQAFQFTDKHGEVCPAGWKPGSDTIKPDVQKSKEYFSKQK
Protocol: The cells were purchased from the American Type Culture Collection (ATCC) (Manassas, VA, United States). Cells were cultured in RPMI-1640 medium supplemented with 10% FBS, 50 units/mL penicillin, and 50 μg/mL streptomycin, and maintained at 37°C in a 5% CO2 humidified culture environment. CPs 1-5 were purchased from WuXi AppTec. Human PRDX1 proteins were purchased from Abcam (Cambridge, MA, United States).
First, […] buffer (20 mM HEPES, 5 mM EDTA, 5 μM cofactor A, 2 μM cofactor B, and 300 μM NADPH) was added to a 96-well plate. The test compounds at the designated concentration (0.02–2 nM, with 1.5-fold dilution) were incubated with PRDX1 at 37°C for 25 min, and then the co-incubated mixture was added to each well to a final concentration of 200 nM PRDX1. Finally, 200 μM H2O2 was added to each well to initiate the enzyme reaction cycle. The oxidation of NADPH was determined by the absorption value at 340 nm. Read plate values for 90 s for one cycle and repeat for 20 cycles. The positive control (celastrol, concentrations 0.06–64 μM) was tested in parallel under identical experimental conditions. Three independent replicate experiments were performed.

EPHB1 = EPHB1 (Homo sapiens, UniProt P54762); test: Kinase selectivity assay
Protocol: (§1) The selectivity of CP1 for PRDX1 was evaluated through kinase selectivity assays against other PRDX family members and a panel of kinases. The experiments were conducted by ICE Biosciences (Beijing, China).

RET = target: T2, RET (Homo sapiens, UniProt P07949); test: Kinase selectivity assay; settings: target RET; read-out: CP1 IC50
T2 construct: assay run by ICE Biosciences (Beijing, China)
Protocol: as §1

EPHB3 = EPHB3 (Homo sapiens, UniProt P54753); test: Kinase selectivity assay; settings: target EPHB3; read-out: CP1 IC50
Protocol: as §1

ZAP70 = target: T3, ZAP70 (Homo sapiens, UniProt P43403); test: Kinase selectivity assay; settings: target ZAP70; read-out: CP1 IC50
T3 construct: ICE Biosciences (Beijing, China), a contract laboratory that ran the assay
Protocol: as §1

PRDX3 = target: T4, PRDX3 (Homo sapiens, UniProt P30048); test: Kinase selectivity assay; settings: target PRDX3; read-out: CP1 IC50
T4 construct: ICE Biosciences (Beijing, China), ran the assays
T4 sequence (P30048 62-256): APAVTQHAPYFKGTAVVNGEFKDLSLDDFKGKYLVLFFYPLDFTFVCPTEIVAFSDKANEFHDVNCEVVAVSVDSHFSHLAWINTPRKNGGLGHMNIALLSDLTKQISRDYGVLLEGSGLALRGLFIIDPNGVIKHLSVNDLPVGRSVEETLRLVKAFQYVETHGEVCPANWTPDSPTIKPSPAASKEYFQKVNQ
Protocol: as §1

EPHA1 = target: T5, EPHA1 (Homo sapiens, UniProt P21709); test: Kinase selectivity assay; settings: target EPHA1; read-out: CP1 IC50
T5 construct: ICE Biosciences (Beijing, China), ran the assays
Protocol: as §1

CSF1R = target: T6, CSF1R (Homo sapiens, UniProt P07333); test: Kinase selectivity assay; settings: target CSF1R; read-out: CP1 IC50
T6 construct: ICE Biosciences (Beijing, China), ran the assays
Protocol: as §1

EPHB2 = EPHB2 (Homo sapiens, UniProt P29323); test: Kinase selectivity assay; settings: target EPHB2; read-out: CP1 IC50
Protocol: as §1

FGFR3 = target: T7, FGFR3 (Homo sapiens, UniProt P22607); test: Kinase selectivity assay; settings: target FGFR3; read-out: CP1 IC50
T7 construct: assay run by ICE Biosciences (Beijing, China)
T7 sequence (P22607 23-806): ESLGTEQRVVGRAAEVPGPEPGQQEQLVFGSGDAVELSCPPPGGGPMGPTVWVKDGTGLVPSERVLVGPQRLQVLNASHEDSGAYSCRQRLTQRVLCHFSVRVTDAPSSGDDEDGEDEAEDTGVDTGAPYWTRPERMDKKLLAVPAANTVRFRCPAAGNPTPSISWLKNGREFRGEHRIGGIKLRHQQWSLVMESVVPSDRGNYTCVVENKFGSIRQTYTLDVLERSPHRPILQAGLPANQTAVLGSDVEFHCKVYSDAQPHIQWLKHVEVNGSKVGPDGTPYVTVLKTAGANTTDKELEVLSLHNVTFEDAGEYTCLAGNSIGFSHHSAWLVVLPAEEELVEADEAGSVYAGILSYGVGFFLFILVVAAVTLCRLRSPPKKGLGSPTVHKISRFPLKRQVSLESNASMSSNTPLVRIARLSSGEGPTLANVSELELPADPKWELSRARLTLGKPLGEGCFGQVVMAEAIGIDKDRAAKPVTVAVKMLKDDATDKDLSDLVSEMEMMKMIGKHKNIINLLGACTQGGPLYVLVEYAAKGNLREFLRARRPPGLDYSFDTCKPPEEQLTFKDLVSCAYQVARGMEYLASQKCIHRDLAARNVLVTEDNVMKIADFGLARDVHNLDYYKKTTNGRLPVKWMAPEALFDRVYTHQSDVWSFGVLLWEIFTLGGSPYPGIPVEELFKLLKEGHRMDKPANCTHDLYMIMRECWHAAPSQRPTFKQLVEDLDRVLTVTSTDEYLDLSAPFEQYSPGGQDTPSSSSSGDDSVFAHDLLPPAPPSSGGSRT
Protocol: as §1

NTRK3 = target: T8, NTRK3 (Homo sapiens, UniProt Q16288); test: Kinase selectivity assay
T8 construct: assay run by ICE Biosciences (Beijing, China)
T8 sequence (Q16288 32-839): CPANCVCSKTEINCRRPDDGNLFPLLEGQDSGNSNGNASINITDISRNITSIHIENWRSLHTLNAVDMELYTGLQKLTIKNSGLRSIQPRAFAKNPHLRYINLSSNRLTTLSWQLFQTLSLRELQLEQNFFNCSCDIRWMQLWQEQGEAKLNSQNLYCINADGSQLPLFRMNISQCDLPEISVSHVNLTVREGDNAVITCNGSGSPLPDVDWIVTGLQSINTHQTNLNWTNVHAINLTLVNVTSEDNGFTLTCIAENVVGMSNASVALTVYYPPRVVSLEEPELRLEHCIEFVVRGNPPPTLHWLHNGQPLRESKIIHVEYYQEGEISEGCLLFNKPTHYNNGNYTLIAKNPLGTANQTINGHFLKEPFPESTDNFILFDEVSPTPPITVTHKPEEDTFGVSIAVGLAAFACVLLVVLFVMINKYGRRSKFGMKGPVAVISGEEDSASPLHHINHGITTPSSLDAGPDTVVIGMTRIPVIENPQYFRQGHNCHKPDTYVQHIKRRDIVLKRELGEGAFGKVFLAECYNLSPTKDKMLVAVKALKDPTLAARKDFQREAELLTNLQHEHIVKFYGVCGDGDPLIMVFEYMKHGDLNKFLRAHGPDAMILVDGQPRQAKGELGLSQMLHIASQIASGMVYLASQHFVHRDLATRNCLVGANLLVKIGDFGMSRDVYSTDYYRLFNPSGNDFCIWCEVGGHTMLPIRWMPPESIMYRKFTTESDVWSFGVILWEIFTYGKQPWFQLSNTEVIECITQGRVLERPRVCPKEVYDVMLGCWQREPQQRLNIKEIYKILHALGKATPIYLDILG
Protocol: as §1

MST1R = MST1R (Homo sapiens, UniProt Q04912); test: Kinase selectivity assay; settings: target MST1R; read-out: CP1 IC50
Protocol: as §1

DDR2 = target: T9, DDR2 (Homo sapiens, UniProt Q16832); test: Kinase selectivity assay
T9 construct: ICE Biosciences (Beijing, China), ran the assays
Protocol: as §1

IGF1R = target: T10, IGF1R (Homo sapiens, UniProt P08069); test: Kinase selectivity assay; settings: target IGF1R; read-out: CP1 IC50
T10 construct: ICE Biosciences (Beijing, China), ran the assays
Protocol: as §1

MERTK = MERTK (Homo sapiens, UniProt Q12866); test: Kinase selectivity assay; settings: target MERTK; read-out: CP1 IC50
Protocol: as §1

EPHA8 = EPHA8 (Homo sapiens, UniProt P29322); test: Kinase selectivity assay; settings: target EPHA8; read-out: CP1 IC50
Protocol: as §1

PRDX2 = target: T11, PRDX2 (Homo sapiens, UniProt P32119); test: Kinase selectivity assay; settings: target PRDX2; read-out: CP1 IC50
T11 construct: ICE Biosciences (Beijing, China), ran the assays
T11 sequence (P32119 whole entry): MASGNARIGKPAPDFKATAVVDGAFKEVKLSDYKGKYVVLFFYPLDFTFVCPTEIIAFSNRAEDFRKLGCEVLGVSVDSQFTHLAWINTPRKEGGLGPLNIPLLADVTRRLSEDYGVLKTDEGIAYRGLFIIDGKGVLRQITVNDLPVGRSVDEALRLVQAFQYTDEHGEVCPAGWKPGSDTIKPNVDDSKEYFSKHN
Protocol: as §1

PTK6 = target: T12, PTK6 (Homo sapiens, UniProt Q13882); test: Kinase selectivity assay; settings: target PTK6; read-out: CP1 IC50
T12 construct: assay run by ICE Biosciences (Beijing, China)
Protocol: as §1

FLT4 = target: T13, FLT4 (Homo sapiens, UniProt P35916); test: Kinase selectivity assay; settings: target FLT4; read-out: CP1 IC50
T13 construct: assay run by ICE Biosciences (Beijing, China)
Protocol: as §1

PTK2 = target: T14, PTK2 (Homo sapiens, UniProt Q05397); test: Kinase selectivity assay; settings: target PTK2; read-out: CP1 IC50
T14 construct: assay run by ICE Biosciences (Beijing, China)
T14 sequence (Q05397 whole entry): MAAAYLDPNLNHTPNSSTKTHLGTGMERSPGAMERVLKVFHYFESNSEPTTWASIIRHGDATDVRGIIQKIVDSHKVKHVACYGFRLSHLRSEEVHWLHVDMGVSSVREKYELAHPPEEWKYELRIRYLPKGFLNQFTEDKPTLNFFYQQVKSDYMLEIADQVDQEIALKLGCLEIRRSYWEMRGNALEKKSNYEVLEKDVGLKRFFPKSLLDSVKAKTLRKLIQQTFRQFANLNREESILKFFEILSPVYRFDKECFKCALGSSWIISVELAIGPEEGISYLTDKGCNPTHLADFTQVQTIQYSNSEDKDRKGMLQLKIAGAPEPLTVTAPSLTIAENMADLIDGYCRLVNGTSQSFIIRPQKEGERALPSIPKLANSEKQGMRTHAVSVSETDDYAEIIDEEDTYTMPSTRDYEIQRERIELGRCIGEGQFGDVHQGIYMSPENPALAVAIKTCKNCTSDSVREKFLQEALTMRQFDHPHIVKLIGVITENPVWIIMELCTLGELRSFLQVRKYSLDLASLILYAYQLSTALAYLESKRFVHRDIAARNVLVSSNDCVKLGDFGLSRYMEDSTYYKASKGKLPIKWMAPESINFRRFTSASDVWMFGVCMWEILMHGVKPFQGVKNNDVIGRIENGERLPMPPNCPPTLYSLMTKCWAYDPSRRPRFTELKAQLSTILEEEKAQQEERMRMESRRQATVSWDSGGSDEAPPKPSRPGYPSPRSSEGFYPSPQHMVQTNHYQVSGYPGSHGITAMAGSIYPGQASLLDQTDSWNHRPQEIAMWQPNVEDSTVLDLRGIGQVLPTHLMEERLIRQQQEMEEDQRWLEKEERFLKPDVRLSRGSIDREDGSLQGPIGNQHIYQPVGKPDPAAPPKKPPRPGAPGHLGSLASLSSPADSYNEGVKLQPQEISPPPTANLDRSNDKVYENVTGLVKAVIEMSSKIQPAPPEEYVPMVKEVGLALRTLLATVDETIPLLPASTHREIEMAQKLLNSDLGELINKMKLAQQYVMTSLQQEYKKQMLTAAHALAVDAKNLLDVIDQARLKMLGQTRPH
Protocol: as §1

NTRK1 = NTRK1 (Homo sapiens, UniProt P04629); test: Kinase selectivity assay
Protocol: as §1

SRMS = target: T15, SRMS (Homo sapiens, UniProt Q9H3Y6); test: Kinase selectivity assay; settings: target SRMS; read-out: CP1 IC50
T15 construct: assay run by ICE Biosciences (Beijing, China)
Protocol: as §1

TEC = target: T16, TEC (Homo sapiens, UniProt P42680); test: Kinase selectivity assay; settings: target TEC; read-out: CP1 IC50
T16 construct: assay run by ICE Biosciences (Beijing, China)
Protocol: as §1

PDGFRB = target: T17, PDGFRB (Homo sapiens, UniProt P09619); test: Kinase selectivity assay; settings: target PDGFRB; read-out: CP1 IC50
T17 construct: assay run by ICE Biosciences (Beijing, China)
T17 sequence (P09619 33-1106): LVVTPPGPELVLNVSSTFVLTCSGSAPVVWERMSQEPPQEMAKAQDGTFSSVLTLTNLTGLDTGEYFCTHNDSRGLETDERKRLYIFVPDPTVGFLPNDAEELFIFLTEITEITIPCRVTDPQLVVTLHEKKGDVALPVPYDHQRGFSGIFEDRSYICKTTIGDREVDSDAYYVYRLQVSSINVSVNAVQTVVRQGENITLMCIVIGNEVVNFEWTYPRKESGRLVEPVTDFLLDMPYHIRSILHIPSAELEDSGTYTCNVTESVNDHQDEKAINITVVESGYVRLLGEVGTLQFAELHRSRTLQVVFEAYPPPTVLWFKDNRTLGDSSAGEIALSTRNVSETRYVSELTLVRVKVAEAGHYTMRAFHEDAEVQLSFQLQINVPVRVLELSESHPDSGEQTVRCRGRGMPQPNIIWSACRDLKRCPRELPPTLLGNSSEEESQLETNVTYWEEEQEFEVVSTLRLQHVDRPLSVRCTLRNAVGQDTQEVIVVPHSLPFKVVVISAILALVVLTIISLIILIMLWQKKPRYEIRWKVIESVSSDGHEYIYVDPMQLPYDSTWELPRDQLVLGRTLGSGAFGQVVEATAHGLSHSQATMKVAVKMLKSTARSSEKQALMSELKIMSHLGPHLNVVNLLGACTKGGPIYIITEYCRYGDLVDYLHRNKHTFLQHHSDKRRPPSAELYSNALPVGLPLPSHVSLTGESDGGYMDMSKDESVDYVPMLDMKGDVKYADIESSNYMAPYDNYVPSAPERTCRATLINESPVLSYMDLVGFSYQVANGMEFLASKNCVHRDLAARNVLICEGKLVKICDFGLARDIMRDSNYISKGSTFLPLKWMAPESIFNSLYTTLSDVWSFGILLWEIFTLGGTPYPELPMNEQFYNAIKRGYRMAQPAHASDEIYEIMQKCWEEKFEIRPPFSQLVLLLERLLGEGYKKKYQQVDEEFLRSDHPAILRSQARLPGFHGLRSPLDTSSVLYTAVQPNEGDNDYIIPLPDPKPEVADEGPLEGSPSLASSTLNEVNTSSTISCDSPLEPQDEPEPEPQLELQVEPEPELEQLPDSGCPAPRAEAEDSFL
Protocol: as §1

KIT = KIT (Homo sapiens, UniProt P10721); test: Kinase selectivity assay; settings: target KIT; read-out: CP1 IC50
Chain of KIT (P10721 26-976): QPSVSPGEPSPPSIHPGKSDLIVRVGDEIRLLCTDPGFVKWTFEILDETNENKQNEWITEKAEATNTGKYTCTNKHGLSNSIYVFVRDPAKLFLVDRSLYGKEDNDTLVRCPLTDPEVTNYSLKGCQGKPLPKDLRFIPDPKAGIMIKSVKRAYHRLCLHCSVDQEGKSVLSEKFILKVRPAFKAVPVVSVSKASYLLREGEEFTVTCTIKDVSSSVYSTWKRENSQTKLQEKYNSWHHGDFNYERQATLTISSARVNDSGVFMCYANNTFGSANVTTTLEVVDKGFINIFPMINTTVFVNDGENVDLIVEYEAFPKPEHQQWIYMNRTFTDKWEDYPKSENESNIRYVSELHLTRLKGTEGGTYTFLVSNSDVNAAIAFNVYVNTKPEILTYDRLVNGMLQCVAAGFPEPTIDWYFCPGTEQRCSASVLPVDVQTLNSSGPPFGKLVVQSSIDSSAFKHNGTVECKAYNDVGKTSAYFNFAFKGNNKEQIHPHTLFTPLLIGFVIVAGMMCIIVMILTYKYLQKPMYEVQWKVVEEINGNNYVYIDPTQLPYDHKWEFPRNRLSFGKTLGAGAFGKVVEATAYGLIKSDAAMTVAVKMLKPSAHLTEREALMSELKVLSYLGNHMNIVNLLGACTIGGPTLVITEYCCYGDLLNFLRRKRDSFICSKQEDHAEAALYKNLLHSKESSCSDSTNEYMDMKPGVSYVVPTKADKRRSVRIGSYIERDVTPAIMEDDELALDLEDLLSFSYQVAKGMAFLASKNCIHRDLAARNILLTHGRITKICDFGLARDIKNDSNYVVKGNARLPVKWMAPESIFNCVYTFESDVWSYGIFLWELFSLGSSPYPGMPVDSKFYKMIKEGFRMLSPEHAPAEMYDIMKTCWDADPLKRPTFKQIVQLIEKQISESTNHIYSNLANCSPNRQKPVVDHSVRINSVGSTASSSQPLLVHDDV
Protocol: as §1

MUSK = MUSK (Homo sapiens, UniProt O15146); test: Kinase selectivity assay; settings: target MUSK; read-out: CP1 IC50
Protocol: as §1

Measured: IC50

CC1=C(CC(=O)/C=C/c2cccc(CO)c2)C(=O)C=C2C1=CC=C1[C@@]2(C)CC[C@@]2(C)C3C[C@](C)(C(=O)CCc4nc(C(O)C(O)O)c(C)nc4C)CC[C@]3(C)CC[C@]12C (some centres unmarked) [CP1]
0.08 ± 0.01 nM: PRDX1
> 30 µM: EPHB1 | RET | EPHB3 | ZAP70 | PRDX3 | EPHA1 | CSF1R | EPHB2 | FGFR3 | NTRK3 | MST1R | DDR2 | IGF1R | MERTK | EPHA8 | PRDX2 | PTK6 | FLT4 | PTK2 | NTRK1 | SRMS | TEC | PDGFRB | KIT | MUSK
